Reference: the supplement of paper PMC11208160

Assay: recombinant barcode read abundance after kanamycin selection (control-corrected) (log10(CPM+1)); higher = more efficient recombination; sequences stand for … in AGTGCAGAGAAAATCGGCCAGTTTTCTCTGCCTGCAGTCCGCATGCCGT…AGATTTATGCAGCGGACTGCCTTTCTCCCAAAGTGATAAACCGGACAGTATCATGGACCGGTTTTCCCGGTAATCCGTATTTGCAAGGTTGGTTTCACT; site = the 11-nt target
Procedure, shortened: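 Pooled E. coli screen pairing targets with IS621 bridge RNA target-binding loops. Each oligo (promoter, target, barcode, J23119-driven first 104 bridge RNA bases) was Gibson-cloned into a vector with the remaining 73 bp and T7-inducible recombinase, then co-electroporated with a donor plasmid. Two replicates each were plated on chloramphenicol/ampicillin LB agar (control) or chloramphenicol/ampicillin/kanamycin with 0.1 mM IPTG. Recombination efficiency is recombinant-junction barcode counts as CPM, averaged, control-corrected, reported as log10(CPM+1).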
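Also: IS621 recombinase and bridge RNA in Escherichia coli cells.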

Sequence	recombinant barcode read abundance (log10)
TAGACCTCTTGGGTTCTAACCTGTTGCCT (site AAGACCTCTAG)	0.113
TAGACCTCTTGGGTTCTAACCTGTTGCCT (site TAGACCTCTAG)	1.86
TAGACTACTTGGGTTCTAACCTGTTGCTT (site TAGACTACTAA)	0.0704
TAGACTACTTGGGTTCTAACCTGTTGCTT (site TAGACTACTCA)	0.0933
TAGACTACTTGGGTTCTAACCTGTTGCTT (site TAGACTACTGA)	0.0122
TAGACTACTTGGGTTCTAACCTGTTGCTT (site TAGACTACTTA)	0.137
TAGACTGCTTGGGTTCTAACCTGTTGCCT (site TAGACTGCTAG)	1.04
TAGACTGCTTGGGTTCTAACCTGTTGCCT (site TAGCCTGCTAG)	0.224
TAGACTGCTTGGGTTCTAACCTGTTGCCT (site TAGGCTGCTAG)	0.107
TAGACTGCTTGGGTTCTAACCTGTTGCCT (site TAGTCTGCTAG)	0.451
TAGAGGACTTGGGTTCTAACCTGTTGCAG (site TACAGGACTCT)	0.0593
TAGAGGACTTGGGTTCTAACCTGTTGCAG (site TAGAGGACTCT)	2.23
TAGATCGCTTGGGTTCTAACCTGTTGCAG (site TAGATCGCTCT)	1.44
TAGATCGCTTGGGTTCTAACCTGTTGCAG (site TAGGTCGCTAT)	0.266
TAGCACACTTGGGTTCTAACCTGTTGCCG (site TAGCACACTCG)	1.51
TAGCACACTTGGGTTCTAACCTGTTGCCG (site TCGCACACTCA)	0.0962
TAGCACCCTTGGGTTCTAACCTGTTGCCC (site TAGCACCCTAG)	0.681
TAGCACCCTTGGGTTCTAACCTGTTGCCC (site TAGCACCCTCG)	0.642
TAGCACCCTTGGGTTCTAACCTGTTGCCC (site TAGCACCCTGG)	1.69
TAGCACCCTTGGGTTCTAACCTGTTGCCC (site TAGCACCCTTG)	0.0312
TAGCAGACTTGGGTTCTAACCTGTTGCCT (site TAGCAGACTAG)	1.45
TAGCAGACTTGGGTTCTAACCTGTTGCCT (site TAGCCGACTAG)	0.034

Sequence	recombinant barcode read abundance (log10)
TAGCAGACTTGGGTTCTAACCTGTTGCCT (site TAGCGGACTAG)	0.0243
TAGCAGACTTGGGTTCTAACCTGTTGCCT (site TAGCTGACTAG)	0.0224
TAGCATACTTGGGTTCTAACCTGTTGCCG (site TAGCATACTAG)	0.271
TAGCATACTTGGGTTCTAACCTGTTGCCG (site TAGCATACTCG)	0.861
TAGCATACTTGGGTTCTAACCTGTTGCCG (site TAGCATACTGG)	0.06
TAGCATACTTGGGTTCTAACCTGTTGCCG (site TAGCATACTTG)	0.198
TAGCCACCTTGGGTTCTAACCTGTTGCCT (site AAGCCACCTAG)	0.151
TAGCCACCTTGGGTTCTAACCTGTTGCCT (site CAGCCACCTAG)	0.917
TAGCCACCTTGGGTTCTAACCTGTTGCCT (site GAGCCACCTAG)	0.0875
TAGCCACCTTGGGTTCTAACCTGTTGCCT (site TAGCCACCTAG)	1.94
TAGCCGACTTGGGTTCTAACCTGTTGCCT (site TAGCAGACTAG)	0.181
TAGCCGACTTGGGTTCTAACCTGTTGCCT (site TAGCCGACTAG)	1.59
TAGCCGACTTGGGTTCTAACCTGTTGCCT (site TAGCGGACTAG)	0.251
TAGCCGACTTGGGTTCTAACCTGTTGCCT (site TAGCTGACTAG)	0.0182
TAGCCGACTTGGGTTCTAACCTGTTGCTT (site TAGACGACTAA)	0.131
TAGCCGACTTGGGTTCTAACCTGTTGCTT (site TAGCCGACTAA)	0.999
TAGCCGACTTGGGTTCTAACCTGTTGCTT (site TAGGCGACTAA)	0.309
TAGCCGACTTGGGTTCTAACCTGTTGCTT (site TAGTCGACTAA)	0.242
TAGCCGTCTTGGGTTCTAACCTGTTGCAC (site TAGACGACTGT)	0.0911
TAGCCGTCTTGGGTTCTAACCTGTTGCAC (site TAGCCGTCTGT)	1.4
TAGCCTTCTTGGGTTCTAACCTGTTGCTG (site TAGCCTTCTCA)	1.02
TAGCCTTCTTGGGTTCTAACCTGTTGCTG (site TAGCCTTCTTA)	0.252

Sequence	recombinant barcode read abundance (log10)
TAGCTAGCTTGGGTTCTAACCTGTTGCGT (site GCTTACCCTTA)	0.0618
TAGCTAGCTTGGGTTCTAACCTGTTGCGT (site TAGCTAGCTAC)	1.62
TAGCTCACTTGGGTTCTAACCTGTTGCAT (site TAGATCACTAT)	0.0546
TAGCTCACTTGGGTTCTAACCTGTTGCAT (site TAGCTCACTAT)	1.17
TAGCTCACTTGGGTTCTAACCTGTTGCAT (site TAGGTCACTAT)	0.181
TAGCTCACTTGGGTTCTAACCTGTTGCAT (site TAGTTCACTAT)	0.307
TAGGAACCTTGGGTTCTAACCTGTTGCCT (site AAGGAACCTAG)	0.7
TAGGAACCTTGGGTTCTAACCTGTTGCCT (site CAGGAACCTAG)	0.649
TAGGAACCTTGGGTTCTAACCTGTTGCCT (site GAGGAACCTAG)	0.0651
TAGGAACCTTGGGTTCTAACCTGTTGCCT (site TAGGAACCTAG)	2.63
TAGGACACTTGGGTTCTAACCTGTTGCCA (site TAGGACACTTG)	1.86
TAGGACACTTGGGTTCTAACCTGTTGCCA (site TCGGATACTTG)	0.198
TAGGACACTTGGGTTCTAACCTGTTGCGT (site TAGGAAACTAC)	0.378
TAGGACACTTGGGTTCTAACCTGTTGCGT (site TAGGACACTAC)	2.8
TAGGACACTTGGGTTCTAACCTGTTGCGT (site TAGGAGACTAC)	0.1
TAGGACACTTGGGTTCTAACCTGTTGCGT (site TAGGATACTAC)	0.295
TAGGACGCTTGGGTTCTAACCTGTTGCCT (site TAAGACGCTAG)	1.76
TAGGACGCTTGGGTTCTAACCTGTTGCCT (site TACGACGCTAG)	0.114
TAGGACGCTTGGGTTCTAACCTGTTGCCT (site TAGGACGCTAG)	2.53
TAGGACGCTTGGGTTCTAACCTGTTGCCT (site TATGACGCTAG)	0.286
TAGGATGCTTGGGTTCTAACCTGTTGCGT (site TAGGATGCTAC)	2.66
TAGGATGCTTGGGTTCTAACCTGTTGCGT (site TAGGATTCTAC)	0.248
